Assay results: paper PMC9154192 (PLoS Biology, 2022)
Like-named read-outs stand apart in the source and are kept apart here.

Columns and labels:
[1] = test system: M. marinum; assay: microbe, parasite or virus in culture; type: cell-based; conditions: Mycobacterium marinum
[2] = test system: M. goodie; assay: microbe, parasite or virus in culture; type: cell-based; conditions: Mycobacterium
[3] = test system: Salmonella Enteritidis; assay: Broth dilution MIC (CLSI); type: cell-based; conditions: Salmonella enterica
Source text: (§1) Bacteria (Acinetobacter baumannii NCCP 14782, Citrobacter freundii NCCP 14766, Enterobacter aerogenes NCCP 14761, Escherichia coli NCCP 14762, Escherichia coli O157 NCCP 14541, Klebsiella pneumoniae NCCP 14764, Proteus mirabilis NCCP 14763, Proteus vulgaris NCCP 14765, Pseudomonas aeruginosa NCCP 14781, Salmonella Enteritidis NCCP 14771, Salmonella Paratyphi A NCCP 14759, Salmonella Typhimurium NCCP 16207, Serratia marcescens NCCP 14770, Shigella boydii NCCP 14745, Shigella dysenteriae NCCP 14746, Shigella flexneri NCCP 14744, Shigella sonnei NCCP 14773, Bacillus subtilis NCCP 11101, Corynebacterium diphtheriae NCCP 10353, Staphylococcus aureus MSSA NCCP 14780, Staphylococcus aureus MRSA NCCP 14769, Staphylococcus epidermidis NCCP 14768, Streptococcus pneumoniae NCCP 14774) and fungi (Aspergillus fumigatus NCCP 22454, Candida albicans NCCP 32557, Cryptococcus neoformans NCCP 32559, Microsporum canis NCCP 22454, Rhizopus oryzae NCCP 22458, Saccharomyces cerevisiae NCCP 32558, Trichophyton rubrum NCCP 22456) strains were obtained from the National Culture Collection for Pathogens (NCCP) (Chungbuk, Korea). The MIC of each agent was determined following the Clinical and Laboratory Standards Institute (CLSI).[40]

[4] = test system: Salmonella Typhimurium; assay: Broth dilution MIC (CLSI); type: cell-based; conditions: Salmonella enterica
Source text: as §1

[5] = test system: Klebsiella pneumoniae; assay: Broth dilution MIC (CLSI); type: cell-based
Source text: as §1

[6] = test system: Staphylococcus epidermidis; assay: Broth dilution MIC (CLSI); type: cell-based
Source text: as §1

[7] = test system: Shigella boydii; assay: Broth dilution MIC (CLSI); type: cell-based
Source text: as §1

[8] = test system: Microsporum canis; assay: Broth dilution MIC (CLSI); type: cell-based
Source text: as §1

[9] = test system: Corynebacterium diphtheriae; assay: Broth dilution MIC (CLSI); type: cell-based
Source text: as §1

[10] = test system: Shigella flexneri; assay: Broth dilution MIC (CLSI); type: cell-based
Source text: as §1

[11] = test system: Aspergillus fumigatus; assay: Broth dilution MIC (CLSI); type: cell-based
Source text: as §1

[12] = test system: Candida albicans; assay: Broth dilution MIC (CLSI); type: cell-based
Source text: as §1

[13] = test system: Escherichia coli; assay: Broth dilution MIC (CLSI); type: cell-based
Source text: as §1

[14] = test system: Proteus mirabilis; assay: Broth dilution MIC (CLSI); type: cell-based
Source text: as §1

[15] = test system: Bacillus subtilis; assay: Broth dilution MIC (CLSI); type: cell-based
Source text: as §1

[16] = test system: Rhizopus oryzae; assay: Broth dilution MIC (CLSI); type: cell-based; conditions: Rhizopus arrhizus
Source text: as §1

[17] = test system: Serratia marcescens; assay: Broth dilution MIC (CLSI); type: cell-based
Source text: as §1

[18] = test system: Staphylococcus aureus, MSSA; assay: Broth dilution MIC (CLSI); type: cell-based
Source text: as §1

[19] = test system: Proteus vulgaris; assay: Broth dilution MIC (CLSI); type: cell-based
Source text: as §1

[20] = test system: Trichophyton rubrum; assay: Broth dilution MIC (CLSI); type: cell-based
Source text: as §1

[21] = test system: M. abscessus; assay: microbe, parasite or virus in culture; type: cell-based, Mycobacterium abscessus; conditions: Mycobacteroides abscessus
[22] = test system: M. tuberculosis H37Rv; assay: microbe, parasite or virus in culture; type: cell-based, Mycobacterium tuberculosis; conditions: Mycobacterium tuberculosis, H37RV; read-out: MIC
[23] = test system: M. fortuitum; assay: microbe, parasite or virus in culture; type: cell-based, Mycobacterium fortuitum; conditions: Mycolicibacterium fortuitum
[24] = test system: M. xenopi; assay: microbe, parasite or virus in culture; type: cell-based; conditions: Mycobacterium xenopi
[25] = test system: M. kyorinense; assay: microbe, parasite or virus in culture; type: cell-based; conditions: Mycobacterium kyorinense
[26] = test system: M. kansasii; assay: microbe, parasite or virus in culture; type: cell-based; conditions: Mycobacterium kansasii
[27] = test system: M. arupense; assay: microbe, parasite or virus in culture; type: cell-based, Mycobacterium arupense; conditions: Mycolicibacter arupensis
[28] = test system: M. conceptionense; assay: microbe, parasite or virus in culture; type: cell-based, Mycobacterium conceptionense; conditions: Mycolicibacterium senegalense
[29] = test system: M. gordonae; assay: microbe, parasite or virus in culture; type: cell-based; conditions: Mycobacterium gordonae
[30] = test system: M. massiliense; assay: microbe, parasite or virus in culture; type: cell-based, Mycobacterium massiliense; conditions: Mycobacteroides abscessus
[31] = test system: M. heraklionease; assay: microbe, parasite or virus in culture; type: cell-based; conditions: Mycobacterium
[32] = test system: M. bolletii; assay: microbe, parasite or virus in culture; type: cell-based, Mycobacterium bolletii; conditions: Mycobacteroides abscessus
[33] = test system: M. gilvum; assay: microbe, parasite or virus in culture; type: cell-based, Mycobacterium gilvum; conditions: Mycolicibacterium gilvum
[34] = test system: M. marseiliense; assay: microbe, parasite or virus in culture; type: cell-based; conditions: Mycobacterium
[35] = test system: M. peregrinum; assay: microbe, parasite or virus in culture; type: cell-based, Mycobacterium peregrinum; conditions: Mycolicibacterium peregrinum
[36] = test system: M. colombiense; assay: microbe, parasite or virus in culture; type: cell-based; conditions: Mycobacterium colombiense
[37] = test system: M. aubagnense; assay: microbe, parasite or virus in culture; type: cell-based, Mycobacterium aubagnense; conditions: Mycolicibacterium aubagnense
[38] = test system: M. smegmatis; assay: microbe, parasite or virus in culture; type: cell-based, Mycobacterium smegmatis; conditions: Mycolicibacterium smegmatis
[39] = test system: M. chitae; assay: microbe, parasite or virus in culture; type: cell-based, Mycobacterium chitae; conditions: Mycolicibacterium chitae
[40] = test system: M. avium; assay: microbe, parasite or virus in culture; type: cell-based; conditions: Mycobacterium avium
[41] = test system: M. intracellulare; assay: microbe, parasite or virus in culture; type: cell-based; conditions: Mycobacterium intracellulare
[42] = test system: clinically isolated MDR, XDR, and TDR M. tuberculosis strains; assay: microbe, parasite or virus in culture; type: cell-based; conditions: Mycobacterium tuberculosis
[43] = test system: M. szulgai; assay: microbe, parasite or virus in culture; type: cell-based; conditions: Mycobacterium szulgai

Measured: MIC

CO[C@H]1/C=C/O[C@@]2(C)Oc3c(C)c(O)c4c(O)c(c(/C=N/N5CCN(C)CC5)c(O)c4c3C2=O)NC(=O)/C(C)=C\C=C\[C@H](C)[C@H](O)[C@@H](C)[C@@H](O)[C@@H](C)[C@H](OC(C)=O)[C@@H]1C [RIF, rifampicin, reference compound]
100 mg/L: [2]
50 mg/L: [25]
3.1 mg/L: [14] | [29]
1.5 mg/L: [10]
> 100 mg/L: [8] | [11] | [12] | [16] | [20] | [21] | [32] | [34] | [42]; TDR-1 | [42]; TDR-2 | [42]; TDR-3
< 0.1 mg/L: [1] | [15] | [26] | [41] | [43]
0.2 mg/L: [23] | [24] | [30] | [31] | [33] | [36]
1.6 mg/L: [37] | [40]
0.05 mg/L: [6] | [9] | [18]
6.3 mg/L: [5] | [13] | [19] | [39]
0.4 mg/L: [7]
25 mg/L: [28] | [35] | [38]
0.1 mg/L: [22] | [27]
12.5 mg/L: [3]; ENTERITIDIS | [4]; TYPHIMURIUM | [17]

[H]/N=C(/N)N[C@H]1[C@H](O)[C@@H](O)[C@H](O[C@@H]2O[C@@H](C)[C@](O)(C=O)[C@H]2O[C@@H]2O[C@@H](CO)[C@H](O)[C@@H](O)[C@@H]2NC)[C@@H](N/C(N)=N\[H])[C@@H]1O [STR, streptomycin]
0.2 mg/L: [2] | [24] | [26] | [33] | [38] | [43]
0.4 mg/L: [22]
6.3 mg/L: [14]; read-out: MIC | [18]; read-out: MIC | [23]
25 mg/L: [4]; Salmonella Typhimurium, read-out: MIC | [7]; read-out: MIC | [10]; read-out: MIC | [13]; read-out: MIC | [19]; read-out: MIC | [21] | [32] | [34]
< 0.1 mg/L: [1]
50 mg/L: [17]; read-out: MIC | [31] | [42]; TDR-1 | [42]; TDR-3
100 mg/L: [29]
> 100 mg/L: [8]; read-out: MIC | [11]; read-out: MIC | [12]; read-out: MIC | [16]; Rhizopus oryzae, read-out: MIC | [20]; read-out: MIC | [37] | [39] | [42]; TDR-2
0.8 mg/L: [15]; read-out: MIC | [25] | [30] | [36] | [41]
3.1 mg/L: [3]; Salmonella Enteritidis, read-out: MIC | [5]; read-out: MIC | [9]; read-out: MIC | [28] | [35] | [40]
1.6 mg/L: [6]; read-out: MIC
0.1 mg/L: [27]
